Reference: article PMC4689457, “Immucillins ImmA and ImmH Are Effective and Non-toxic in the Treatment of Experimental Visceral Leishmaniasis” (PLoS Neglected Tropical Diseases, 2015)
Read-outs that look alike come from different tables or passages of the source.

Assays:
visceral leishmaniasis = settings: oral therapy, cited from earlier work
amastigotes = settings: cited from earlier work
IgG2a response, IL-10 = settings: cited from earlier work; for IL-10 reduction: 1 day after complete treatment
[1] = tested on: L. (L.) infantum chagasi promastigotes; parameters: method as in PMID 25909893; settings: cited from earlier work
[2] = tested on: L. (L.) amazonensis promastigotes; parameters: method as in PMID 25909893; settings: cited from earlier work
[3] = tested on: anti-NH36 IgG, IgG1 and IgG2a antibodies; assay: Anti-NH36 antibody ELISA in sera of infected treated mice; assay type: in vivo, BALB/c mice
Method: The NH36 gene of Leishmania (L.) donovani (EMBL, Genbank and DDJB data bases, access number AY007193) with a His6tag at the C-terminal was cloned in E. coli Bl21DE3. Expression of the recombinant NH36 was obtained by induction with 0.5mM IPTG and overnight incubation at 20°C. Cultures were harvested by centrifugation and the pellets submitted to sonication during 10 minutes with cycles of 30 sec. and intervals of 55 sec. Sonicates were centrifuged and their supernatants separated for purification by column chromatography using Ni-NTA Superflow resin (Qiagen, USA). The column was eluted with a 50mM potassium phosphate, 300 mM NaCl buffer, pH: 8.0, using a 50 to 300mM imidazole gradient. The fraction containing NH36 recombinant antigen was recovered, dyalized and preserved at -80°C. Sera were collected from mice by intracardiac puncture on day 1, 15 and 30 following complete chemotherapy and assayed for the presence of anti-NH36 IgG, IgG1 and IgG2a antibodies. For that purpose the recombinant NH36 antigen (40 μg/mL) was solubilized in 0.1M sodium carbonate buffer (8.4 g of NaHCO3, 3.56 g of Na2CO3 per L; pH 9.6), and used to coat flat-bottom 96-well plates. Antibodies were detected by goat anti-mice IgG (Sigma), anti-IgG1 and anti-IgG2a peroxidase-conjugates (Southern Biotechnology Associates, Birmingham, AL, EEUU) in a 1:1000 dilution. The absorbance values at 492 ηm were compared using a 1:100 dilution of the serum samples. Results are expressed as mean values of triplicates. We used the mean average + 2 SD of serum from normal uninfected controls in order to calculate the cut-off value according to the Youden test.

[4] = tested on: CD4+, CD8+ and CD19+ lymphocytes; assay: CD4+, CD8+ and CD19+ lymphocyte frequencies by flow cytometry in splenocytes of uninfected treated mice; assay type: cell-based, BALB/c mice; settings: for CD8+ T cell frequencies: day 1 after treatment
Method: (§1) Female BALB/c mice, 8 weeks old, were injected intraperitoneally with daily doses 2.5 mg/Kg of IA, IH, SMIH or Glucantime during five days and euthanized on day 1, 15 and 30 after complete treatment. For evaluation of the T cell response, spleens were removed and splenocytes were incubated for 24 h in vitro with the lysate of 10^6 stationary phase promastigotes of L. (L.) infantum chagasi (MHOM/BR/1974/PP75), with 25 μg/mL NH36, at 37°C and 5% CO2, during 72 h for the assay of the cytokine expression in the supernatants. Additionally, splenocytes from uninfected BALB/c mice either untreated or previously treated with IA, IH, SMIH or Glucantime were incubated in vitro with 10 μg/mL of each respective drug. For flow cytometry analysis (FACS analysis), splenocytes were incubated for 24 h with the antigens or drugs, labeled with anti-CD4FITC (clone GK1.5), anti-CD8FITC (clone 53–6.7) monoclonal antibodies (R&D systems, Inc) or with rat anti-mouse CD19-PerCP-Cy5.5 and 100,000 lymphocyte counts were acquired using a BD FACScalibur apparatus. Data was analyzed using the Flow-Jo program. The secretion of cytokines was evaluated in the supernatants of splenocytes by an ELISA assay.

[5] = Renal and hepatic function markers in plasma of mice; assay type: in vivo, BALB/c mice
Method: (§2) Female BALB/c mice, 8 week old, were infected through the caudal vein with 10^7 amastigotes of L. (L.) infantum (strain IOC-L 3324) isolated from infected hamsters spleens. After 15 days of infection, mice (n = 5 per treatment) were injected by the intraperitoneal route (ip) with daily doses for 5 days of 2.5 mg/Kg of IA, IH, SMIH [30, 31] or the control drug Glucantime (Sanofi Aventis, batch 0929280802) (Fig 1). Immucillins were synthesized at the Ferrier Research Institute, Victoria University of Wellington, New Zealand. Uninfected and infected mice treated only with saline were included as controls for the treatment cohorts. On days 1, 15, and 30 after complete treatment, the animals were euthanized with CO2. Blood samples were collected for sera analysis and weight of spleens, livers and total body were determined. Spleens were also used for determination of cytokine expression. The parasite load was evaluated in Giemsa-stained liver smears and expressed in LDU values (Leishman Donovan units of Stauber = number of amastigotes per 1000 liver cell nuclei/mg of liver weight). The levels of urea, creatinine, glutamate pyruvate transaminase (GPT) and glutamate oxaloacetate transaminase ([…]) were assessed in plasma by standard clinical laboratory procedures using a Wiener lab Metrolab 2300 (Laborlife Análises Clínicas laboratory, Rio de Janeiro).

L. (L.) infantum chagasi [6] = assay: Liver parasite load (LDU) in infected BALB/c mice after chemotherapy; assay type: in vivo; settings: 2.5 mg/kg/day ip 5 days
Method: as §2

[7] = Body weight and renal/hepatic markers in sera of infected treated hamsters; assay type: in vivo, CB golden hamster
Method: (§3) The efficacy of immucillins was also assayed in the CB golden hamster susceptible model. Females, 8 weeks old, were infected through the intracardiac route with 2 x 10^7 amastigotes of L. (L.) infantum chagasi (strain IOC-L 3324) isolated from infected hamsters spleens. Thirty days after infection, the animals were treated with 2.5 mg/kg daily doses of Glucantime, IA, IH or SMIH, through the ip route, for five days. Ten days after complete treatment the animals were euthanized, their parasite load was determined in livers and the renal function evaluated in sera samples as described above.

splenocytes = assay: Cytokine secretion by splenocytes of uninfected treated mice incubated in vitro with the respective drug; assay type: cell-based, BALB/c mice; settings: splenocytes + 10 μg/ml drug
Method: as §1

[8] = tested on: L. (L.) infantum chagasi infection; assay: Survival, body and organ weights of infected treated BALB/c mice; assay type: in vivo; settings: end of the experiment
Method: as §2

L. (L.) infantum chagasi [9] = assay: Liver parasite load in infected CB hamsters after chemotherapy; assay type: in vivo, CB golden hamster; settings: 2.5 mg/kg/day ip 5 days, 10 days after complete treatment; for liver parasite load: untreated 16,334 LDU
Method: as §3

human lymphocytes = settings: cited from earlier work
macrophage = tested on: macrophage; parameters: method as in PMID 25909893; settings: 10 μM; cited from earlier work
[10] = cited from earlier work
[11] = tested on: L. (L.) infantum chagasi amastigotes; parameters: method as in PMID 25909893; settings: 10 μM; cited from earlier work
[12] = target: L. (L.) donovani recombinant NH36; parameters: method as in PMID 25909893; settings: ref 29; read-out: Ki, inhibition of NH36 enzymatic activity; cited from earlier work
blood PNP = tested on: blood PNP; parameters: method as in PMID 19170524; settings: mice; cited from earlier work
[13] = day 1 after complete treatment, vs untreated infected controls
[14] = day 30 after complete treatment

CCCCCCCCCCCCCCCCOP(=O)([O-])OCC[N+](C)(C)C [Miltefosine]
cure rates (visceral leishmaniasis; Brazil): 50%
success rates (visceral leishmaniasis; India): 94%
reduction in parasite burden (amastigotes; ref 46): 50%
enhancement of the IgG2a response (IgG2a response, IL-10; ref 46): 75%

O=c1[nH]cnc2c(CN3C[C@H](CO)[C@@H](O)C3)c[nH]c12 [DIH]
concentrations inhibiting growth of promastigotes in vitro [1]: nanomolar to micromolar
concentrations inhibiting growth of promastigotes in vitro [2]: nanomolar to micromolar

Glucantime [reference compound]
anti-NH36 IgG2a increase vs untreated infected controls ([3]; day 1): 67%
CD4+ T cell frequencies (in words) [4]: high CD4+ T cell increase (p<0.05) only on day 1
CD19 B cell frequencies enhanced by previous treatment [4]: ~ 30%
CD8+ T cell frequencies [4]: increased
renal (urea and creatinine) and hepatic (GOT and GTP) toxicity [5]: Pronounced toxicity
increase in GOT serum level ([5]; 2.5 mg/kg/day ip 5 days): 6 fold
increase in GPT serum level ([5]; 2.5 mg/kg/day ip 5 days): 9 fold
increase in creatinine serum level ([5]; 2.5 mg/kg/day ip 5 days): 9 fold
increase in urea serum level ([5]; 2.5 mg/kg/day ip 5 days): 4 fold
reduction of liver parasite load (LDU) (L. (L.) infantum chagasi [6]; [13]): 46%
reduction of liver parasite load (LDU) (L. (L.) infantum chagasi [6]; [14]): 88%
body weight ([7]; infected hamsters): increase in body weight
decrease of creatinine ([7]; infected hamsters): 41%
reduction of blood urea levels ([7]; infected hamsters): ~ 50%
IL-10 levels (splenocytes): 509 pg/mL
survival [8]: 100%

N.N.[Cl][Pt][Cl] [cisplatin]
reduction in parasite burden (amastigotes; ref 30): 75%
reduction in parasite burden (amastigotes; ref 31): 80%
reduction in parasite burden (amastigotes; ref 32): 50%
IL-10 reduction (IgG2a response, IL-10): 50%
enhancement of the IgG2a response (IgG2a response, IL-10; ref 30, 31): 50–55%

Nc1nc2c(CN3C[C@H](CO)[C@@H](O)C3)c[nH]c2c(=O)[nH]1 [DIG]
concentrations inhibiting growth of promastigotes in vitro [1]: nanomolar to micromolar
concentrations inhibiting growth of promastigotes in vitro [2]: nanomolar to micromolar

Nc1ncnc2c([C@@H]3N[C@H](CO)[C@@H](O)[C@H]3O)c[nH]c12 [IA]
anti-NH36 IgG1 in infected untreated controls higher than in treated mice ([3]; day 1): 69%
anti-NH36 IgG1 in infected untreated controls higher than in treated mice ([3]; day 15): 64%
anti-NH36 IgG1 in infected untreated controls higher than in treated mice ([3]; day 30): 57%
concentrations inhibiting growth of promastigotes in vitro [1]: nanomolar to micromolar
CD19 B cell frequencies enhanced by previous treatment [4]: ~ 30%
CD4+ T cell frequency, higher proportion than previously untreated controls ([4]; day 1): 57%
CD8+ T cell frequencies [4]: increased
CD4+ T cell frequency, higher proportion than previously untreated controls ([4]; day 15): 21%
CD4+ T cell frequency, higher proportion than previously untreated controls ([4]; day 30): 29%
reduction of liver parasite load (LDU) (L. (L.) infantum chagasi [6]; [13]): 45%
reduction of liver parasite load (LDU) (L. (L.) infantum chagasi [6]; [14]): 89%
concentrations inhibiting growth of promastigotes in vitro [2]: nanomolar to micromolar
liver parasite load reduction (L. (L.) infantum chagasi [9]): 86%
liver parasite load (L. (L.) infantum chagasi [9]): 2,038 LDU
mutagenicity or chromosomal aberrations (human lymphocytes): did not induced mutagenicity or chromosomal aberrations
damage to macrophage viability (macrophage): no apparent damage
body weight ([7]; infected hamsters): increase in body weight
decrease of creatinine ([7]; infected hamsters): 66%
metabolic stability ([10]; mouse, rat, guinea pig and cynomolgus macaque): metabolically stable
clearance from plasma ([10]; ref 37): rapid clearance
inhibition of intracellular replication of amastigotes [11]: 95%
Ki [12]: 0.08 µM
IL-10 levels (splenocytes): 113 pg/mL
survival [8]: 100%

1,3,4-tiadiazolium-2 aminide
IL-10 reduction (IgG2a response, IL-10): 75%

O=c1[nH]cnc2c([C@@H]3N[C@H](CO)[C@@H](O)[C@H]3O)c[nH]c12 [IH]
concentrations inhibiting growth of promastigotes in vitro [1]: nanomolar to micromolar
CD19 B cell frequencies enhanced by previous treatment [4]: sustained
reduction of liver parasite load (LDU) (L. (L.) infantum chagasi [6]; [14]): 85%
concentrations inhibiting growth of promastigotes in vitro [2]: nanomolar to micromolar
liver parasite load reduction (L. (L.) infantum chagasi [9]): 70%
liver parasite load (L. (L.) infantum chagasi [9]): 4,905 LDU
damage to macrophage viability (macrophage): no apparent damage
decrease of creatinine ([7]; hamster, in vivo): 63%
reduction of GOT levels ([7]; hamster, in vivo): ~ 30%
reduction of blood urea levels ([7]; hamster, in vivo): ~ 50%
body weight ([7]; infected hamsters): increase in body weight
inhibition of intracellular replication of amastigotes [11]: 95%
Ki [12]: 0.019 µM
survival [8]: 100%

Nc1nc(O)c2[nH]cc(CNC(CO)CO)c2n1 [SMIG]
concentrations inhibiting growth of promastigotes in vitro [1]: nanomolar to micromolar
concentrations inhibiting growth of promastigotes in vitro [2]: nanomolar to micromolar

O=c1[nH]cnc2c(CNC(CO)CO)c[nH]c12 [SMIH]
oral availability (blood PNP): orally available
concentrations inhibiting growth of promastigotes in vitro [1]: nanomolar to micromolar
CD4+ T cell frequencies (in words) [4]: lower CD4+ T cell frequencies
CD19 B cell frequencies enhanced by previous treatment [4]: ~ 30%
CD8+ T cell frequencies [4]: diminished
reduction of liver parasite load (LDU) (L. (L.) infantum chagasi [6]; [14]): 85%
concentrations inhibiting growth of promastigotes in vitro [2]: nanomolar to micromolar
liver parasite load reduction (L. (L.) infantum chagasi [9]): no cure
damage to macrophage viability (macrophage): no apparent damage
reduction of blood urea levels ([7]; infected hamsters): ~ 50%
inhibition of intracellular replication of amastigotes [11]: 95%
survival [8]: 100%
